Assay results published in US11191705B2, “Personal cleansing compositions” (The Procter & Gamble Company, priority 2018, dated 2021).

Tested on: Staphylococcus aureus ATCC 6538
Assay: Combinatorial Minimum Inhibitory Concentration (cMIC) test
Format: cell-based
Set-up: key to bacteria growth (values equal to or higher than 10 mean growth, less than 10 no growth): % of OD620 of control well without actives (full growth)
Conditions: for reduction of level when combined (MIC alone / level in combination): 33.3/3.13 for hinokitiol, 12.5/6.25 for piroctone olamine
Protocol: One way to combat the issues of cost of a material is to combine it with a lower cost material. This can be complicated depending on whether the materials interact, what each of the materials target, whether they can complement one another, how much of each is needed for efficacy, etc. This is considered to be an additive interaction between the materials, i.e. where each is doing what one would expect based on their individual properties. Occasionally, when materials are added together the combination performs better than what would be expected based on the individual performances. This is considered a synergistic relationship. Synergy can be determined through the use of a Combinatorial Minimum Inhibitory Concentration (“cMIC”) test. This can be used to determine the combinatorial effects of two chemicals on anti-bacterial activity in a tissue culture setting.
It has been discovered that there is a synergistic relationship between hinokitiol and a 2-pyridinol N-oxide material, piroctone olamine. cMIC testing was conducted utilizing Staphylococcus aureus as the bacteria. […] When combined, they were efficacious at levels of 6.25 ppm piroctone olamine and only 3.13 ppm of hinokitiol. Thus, a benefit is seen where the combination of piroctone olamine and hinokitiol comprise about 9 ppm or more by weight of the cleansing composition. Thus, hinokitiol and piroctone olamine levels are reduced by 10.7 times (33.3/3.13) and 2 times (12.5/6.25), respectively. […] Thus, combining piroctone olamine and hinokitiol allows for the use of less of each material and can reduce costs.
Combinatorial Minimum Inhibitory Concentration (cMIC) Method
A Combinatorial Minimum Inhibitory Concentration (“cMIC”) is used to determine the combinatorial effects of two chemicals on anti-bacterial activity in a tissue culture setting. Herein, the cMIC is a measure of the Minimum Inhibitory concentrations (MIC) of Hinokitiol in combination with Piroctone Olamine or vice versa.
1. Method Overview: • a. Each cMIC assay is run in triplicates. • b. Staphylococcus aureus ATCC 6538 is cultured on tryptic soy agar (TSA) (Oxoid CM0131) over 24 hours. The single colonies are then transferred into saline and mixed through vortex to obtain an optical density (OD) of 0.08-0.13 at 620 nm. 200 μL of this bacterial suspension is added to 19.8 mL of Mueller Hinton Broth (MHB) (BD 212322). This gives 5×10^5 cfu/mL. 100 μL of this bacteria-MHB mix is added to a 96 well flat-bottomed plate (TRP 92196). • c. Hinokitiol is pipetted into the wells in varying concentrations as indicated below. • d. Piroctone Olamine is pipetted into the wells in varying concentrations, as indicated below. • e. The plates are then read using a spectrophotometer at 620 nm. This is the 0-hour reading. • f. The plates are incubated at 37° C. between 18-24 hours with shaking at 50 rpm. • g. The optical density of the plate is then measured using a spectrophotometer at 620 nm. • h. The OD value is calculated as subtraction of the readings between 18-24 hour and the 0-hour. • i. cMIC is determined as the minimal concentration of Hinokitiol in combination with Piroctone Olamine or vice versa, corresponding to the well whose OD value is less than 10% of the OD value of the control well without Hinokitiol and Piroctone Olamine (full growth).

Structure (SMILES) | reduction of level when combined (MIC alone / level in combination) | bacteria growth (values equal to or higher than 10 mean growth, less than 10 no growth) (Piroctone Olamine 3.13 ppm alone (Hinokitiol 0 ppm)) | bacteria growth (values equal to or higher than 10 mean growth, less than 10 no growth) (Piroctone Olamine 6.25 ppm alone (Hinokitiol 0 ppm)) | bacteria growth (values equal to or higher than 10 mean growth, less than 10 no growth) (Piroctone Olamine 12.5 ppm alone (Hinokitiol 0 ppm)) | bacteria growth (values equal to or higher than 10 mean growth, less than 10 no growth) (Piroctone Olamine 15 ppm alone (Hinokitiol 0 ppm)) | bacteria growth (values equal to or higher than 10 mean growth, less than 10 no growth) (Piroctone Olamine 17.5 ppm alone (Hinokitiol 0 ppm)) | bacteria growth (values equal to or higher than 10 mean growth, less than 10 no growth) (Piroctone Olamine 20 ppm alone (Hinokitiol 0 ppm)) | bacteria growth (values equal to or higher than 10 mean growth, less than 10 no growth) (Piroctone Olamine 25 ppm alone (Hinokitiol 0 ppm)) | Bacterial growth (Piroctone olamine 6.25 ppm, Hinokitiol 0 ppm) | minimum inhibitory concentration (MIC) against Staphylococcus aureus (single material alone) | bacteria growth (values equal to or higher than 10 mean growth, less than 10 no growth) (Hinokitiol 3.13 ppm alone (Piroctone Olamine 0 ppm)) | bacteria growth (values equal to or higher than 10 mean growth, less than 10 no growth) (Hinokitiol 6.25 ppm alone (Piroctone Olamine 0 ppm)) | bacteria growth (values equal to or higher than 10 mean growth, less than 10 no growth) (Hinokitiol 12.5 ppm alone (Piroctone Olamine 0 ppm)) | bacteria growth (values equal to or higher than 10 mean growth, less than 10 no growth) (Hinokitiol 25 ppm alone (Piroctone Olamine 0 ppm)) | bacteria growth (values equal to or higher than 10 mean growth, less than 10 no growth) (Hinokitiol 33.5 ppm alone (Piroctone Olamine 0 ppm)) | bacteria growth (values equal to or higher than 10 mean growth, less than 10 no growth) (Hinokitiol 42.5 ppm alone (Piroctone Olamine 0 ppm)) | bacteria growth (values equal to or higher than 10 mean growth, less than 10 no growth) (Hinokitiol 50 ppm alone (Piroctone Olamine 0 ppm)) | Bacterial growth (Piroctone olamine 0 ppm, Hinokitiol 33.5 ppm) | MIC (Staphylococcus aureus, ATCC6538, single material alone, read-out: minimum inhibitory concentration (MIC) against Staphylococcus aureus)
Cc1cc(CC(C)CC(C)(C)C)n(O)c(=O)c1.NCCO (centres unmarked) [Piroctone Olamine, piroctone olamine] | 2 times | 94 | 46 | 1 | 1 | 1 | 1 | 2 | Yes | 12.5 ppm |  |  |  |  |  |  |  |  | 
CC(C)c1cccc(=O)c(O)c1 [Hinokitiol] | 10.7 times |  |  |  |  |  |  |  |  |  | 78 | 103 | 65 | 17 | 4 | 2 | 1 | Yes | 33.3 µg/mL
